Results on four molecules are retold here after patent US20220118159A1, “ANTIOXIDANT-RELEASING VITREOUS SUBSTITUTES AND USES THEREOF” (Ohio State Innovation Foundation, priority 2019, published 2022).

The structures appear in SMILES notation. Entries after “also recorded” stand apart in the source; their conditions may differ. Where two headings read alike, the source gives them in different places.

A short description of data set [1]: Vitamin C remaining (stability) study, absorbance at 265 nm.
Experimental: (§5) Chitosan (Sigma-Aldrich, low molecular weight, 1 mg/ml) was dissolved in acetic acid solution (1% w/w, 500 ml) for 60 min at 500 rpm. Sodium tripolyphosphate (1.75 mg/ml, 500 ml) was added dropwise into the chitosan solution to form nanoparticles over 2 hours. The nanoparticles were collected by centrifugation at 4000 rpm for 15 min at 21° C. The particles were washed with deionized water and again centrifuged. Vitamin C (10% w/w, 10 ml, pH 5.5) was added to the particles and equilibrated for 18 hours on an orbital shaker. Sodium alginate (FMC BioPolymer, Protanal PH, 1 mg/ml, 10 ml, pH 5.5) was added to the vitamin C and chitosan particle solution and sonicated for 30 min. Chitosan (Sigma-Aldrich, low molecular weight, 1 mg/ml in 1% w/w acetic acid solution, 10 ml) or gelatin (bloom 175, 1 mg/ml, 10 ml) was added to the vitamin c-chitosan-alginate particles and sonicated for 30 min. The particles were collected by centrifugation at 4000 rpm for 15 min at 21° C. and freeze dried. […] Concentration of vitamin C versus time was determined using methods as described elsewhere in the Examples.
(§6) Either the particle solutions or the chemically-stabilized Vitamin C solutions were incubated in the hydrogels at 37° C.
(§7) For each solution tested, a control group with no vitamin C and a test group with vitamin C (1% w/w) alone in DPBS were included. […] All solutions were kept at 37° C. throughout the release studies. The amount of viable vitamin C remaining in the solutions was measured using a Synergy HT multi-mode microplate reader (BioTek, Winooski, Vt.) at wavelength 265 nm and compared to the control groups to determine the amount of viable vitamin C left in the solutions. To measure the concentration of vitamin C, solutions with particles were centrifuged at 3220 rpm for 5 min and solution (500 uL) was removed and placed into a 96-well plate measured on days 0, 1, 2, 3, 4, 7, 8, 9, 10, 11, and 14. After two weeks, solutions with higher concentrations of vitamin C were measured every other day until vitamin C was undetectable. For the particle solutions, DPBS solutions (500 uL) was added back into the solution to maintain a constant volume.
In data set [2] the test system is LEC. Kind of data set: CellTiter-Glo luminescent cell viability assay. As for the experimental part: (§1) Cell Viability and ROS Activity Assays. ARPE-19 and LEC were seeded in 96-well plates at 1×10^4 cells per well in DMEM/F-12 and DMEM, respectively, supplemented with 10% FCS and 1% Pen Strep for 24 h at 37° C. in 5% CO2 humidified atmosphere. The hydrogels were submerged in 70% ethanol for 1 hour to sterilize, rinsed with deionized water 3 times for 1 hour each to remove the residual ethanol, and mixed well with serum-free and phenol red-free DMEM at a hydrogel concentration of 10% w/v (J. Chang, et al., J Mater Chem B. 2015, 3, 1097-1105; Y. Tao, et al., Acta Biomater. 2013, 9, 5022-5030; M. Annaka, et al., Biomacromolecules. 2011, 12, 4011-4021; and S. Lamponi, et al., J. Biomater. Sci. Polym. Ed. 2012, 23, 555-575). The culture medium in each well was removed and medium (100 μL) with/without hydrogel and with/without vitamin C (2.2 mM) was added to each well and incubated for 24 hours. Hydrogen peroxide (10 200 μM final concentration) was added to half of the wells, and DPBS (10 μL) was added to the remaining wells as a control (A. Heckelen, et al., Acta Ophthalmol Scand. 2004, 82, 564-568; and H. S. Lee, et al., Invest. Ophthalmol. Vis. Sci. 2017, 58, 1196-1207). The well plates were incubated for 30 minutes. CellTiter-Glo luminescent cell viability assay was conducted according to the manufacturer's protocol. Briefly, the well plates were equilibrated to room temperature for 30 minutes. CellTiter-Glo Reagent (100 μL) was added to each well, and the contents were mixed for 10 minutes using an orbital shaker. The well plates were incubated at room temperature for 10 minutes before the luminescent signal was measured using the Synergy HT multi-mode microplate reader. ROS activity was detected using DCF. Briefly, DCF (100 20 μM final concentration) was added to each well, and the contents were incubated at room temperature for 30 minutes (Y. Ou, et al., Chem Biol Interact. 2009, 179, 103-109). The fluorescence signal was measured with excitation and emission wavelengths of 485 and 525 nm, respectively, using a TECAN M200 Plate Reader (Männedorf, Switzerland).
(§2) Screening of Hydrogen Peroxide, Vitamin C, and Glutathione Concentrations Using a Cell Viability Assay: ARPE-19 and LEC were seeded in 96-well plates at 1×10^4 cells per well in DMEM/F-12 and DMEM, respectively, supplemented with 10% FCS and 1% Pen Strep for 24 h at 37° C. in 5% CO2 humidified atmosphere. The culture medium in each well was removed and various media with vitamin C (2000 μM, 1000 μM, 500 μM, 100 μM, and 0 μM) or glutathione (10000 μM, 4000 μM, 2000 μM, 1000 μM, 500 μM, and 0 μM) was added to each well (100 μL) and incubated for 24 hours. Hydrogen peroxide (600 μM, 400 μM, 200 μM, 100 μM, 50 μM, and 0 μM) and a special case of vitamin C (2000 μM) was added (100 μL) 30 minutes before performing the viability assays. CellTiter-Glo luminescent cell viability assay was conducted according to the manufacturer's protocol. Briefly, the well plates were equilibrated to room temperature for 30 minutes. CellTiter-Glo Reagent (100 μL) was added to each well, and the contents were mixed for 10 minutes using an orbital shaker.
On the technique in general: In ATP-based viability assays light output follows the ATP content of the culture.

Data set [3] deals with ARPE-19. Kind of data set: CellTiter-Glo luminescent cell viability assay. Here is the method: as §1, §2
The subject of data set [4] is LEC. Kind of data set: ROS activity, DCF assay. It counts as cell-based, human. Here is the method: (§3) Cell Viability and ROS Activity Assays. […] The well plates were incubated for 30 minutes. […] ROS activity was detected using DCF. […] The fluorescence signal was measured with excitation and emission wavelengths of 485 and 525 nm, respectively, using a TECAN M200 Plate Reader (Männedorf, Switzerland).
(§4) Antioxidant Activity of Vitamin C in Reducing Reactive Oxygen Species (ROS) Activity Using DCF Assay: The ROS activity induced by hydrogen peroxide (200 μM for 30 minutes) of ARPE-19 and LEC treated with vitamin C (0, 100, and 1000 μM for 30 minutes or 24 hours) was determined using dichlorofluorescein assay. Briefly, LEC and ARPE-19 cells were cultured as aforementioned.

Data set [5] relates to ARPE-19. Kind of data set: ROS activity, DCF assay. The data set is classed as cell-based, human. As for the experimental part:
as §3, §4

For data set [6] the following is noted: 2 mM.
Experimental: as §5, §6, §7
A short description of data set [7]: Sodium ascorbate degradation and release from polyacrylamide hydrogels. It counts as physicochemical. The note with it: PBS, lag time about 36 hours after making. As for the experimental part:
The 2 mM sodium ascorbate solutions in PBS, which was diluted 20× before measurement as previously described, show an exponential-like decay in concentration over time (note that the y-axis is plotted on a log scale). Additionally, its concentration at time 0 was 1.4 mM, not 2 mM as made, since there was a lag time between when the solutions were made and when the experiment started. This lag time (about 36 hours) was due to the delayed gelation time of polyacrylamide hydrogels. The polymer solutions with sodium ascorbate gelled within 18 hours. However, the polymer solutions without sodium ascorbate took twice as long to gel.
The gelled polyacrylamide hydrogels (1 ml) with or without sodium ascorbate were submerged in 10 ml of PBS. […] The 1 ml aliquots were measured without dilution, since the sodium ascorbate concentrations were already within the linear region of the standard curve.
The absorbance readings of the hydrogels without sodium ascorbate increase with time. Since there was no sodium ascorbate added to these hydrogels, the increase in absorbance could be due to the small pieces of polymer leached out from the hydrogel causing UV light interference. […] The absorbance readings of hydrogels without sodium ascorbate can be subtracted from the ones with sodium ascorbate to obtain the true absorbance reading due to the varying concentrations of sodium ascorbate.

Where [8] appears, read: glutathione, all tested conditions up to 10000 μM, 24 hours.
Setting [9] is: hydrogen peroxide 200 μM, 30 minutes, compared to control.
[10] abbreviates: Example 7: hydrogen peroxide 200 μM final, 30 minutes, vs non-treated.
Where [11] appears, read: H2O2 200 μM and 400 μM, 30 minutes.
[12] abbreviates: hydrogen peroxide 600 μM, 30 minutes.
[13] abbreviates: hydrogen peroxide at or below 100 μM, 30 minutes.
Where [14] appears, read: vitamin C 100 μM for 24 hours, H2O2 200 μM.
Where [15] appears, read: vitamin C 100 μM, after 24 hours, not treated with H2O2.
Setting [16] is: vitamin C 100 and 1000 μM for 30 minutes.

`N[C@@H](CCC(=O)N[C@@H](CS)C(=O)NCC(=O)O)C(=O)O` [Glutathione, glutathione]: in data set [1] (particles, presence of glutathione (FIGS. 18-19)), the “maintenance of vitamin C concentrations” value was “improved maintenance of vitamin C concentrations”. Moreover, the “vitamin C remaining” value in data set [1] (past 14 days, glutathione 4-10 mM (FIG. 25)) is recorded as “More than half”. Further, the “change of cell viability” value in the data set on LEC [2] (glutathione 4000 μM and 10000) was “decreased”; with ARPE-19 [3] (glutathione concentration above 100 μM) it was “increased”. In addition, the cell viability entry in the data set on LEC [2] (setting [8]) and in the data set on ARPE-19 [3] (setting [8]) was “above 70%” each time.
`OO` [Hydrogen peroxide, hydrogen peroxide]: the “increase in ROS activity” value in the data set on LEC [4] (hydrogen peroxide 200 μM) is recorded as 1.5 times. The ROS activity entry with LEC [4] (setting [9]) is given as “increased”; in the data set with ARPE-19 [5] (setting [9]), “did not affect; also recorded: did not significantly respond”. The cell viability result is “statistically lower” in the data set with LEC [2] (setting [10]); “significantly decreased the cell viability” in the data set on LEC [2] (setting [11]); “significantly decreased cell viability” in the data set with LEC [2] (setting [12]); “did not affect cell viability” in the data set with LEC [2] (setting [13]); “approximately the same or even higher” in the data set with ARPE-19 [3] (setting [10]); “had no effect” in the data set on ARPE-19 [3] (setting [11]). The cell viability result in the data set on ARPE-19 [3] (setting [12]) is reported as “significantly decreased cell viability”; in the data set on ARPE-19 [3] (setting [13]), “did not affect cell viability”.
For the molecule `O=C1O[C@H]([C@@H](O)CO)C(O)=C1O` [Vitamin C, ascorbic acid], the “reduction of ROS induced by hydrogen peroxide” value in the data set with LEC [4] (setting [14]) and in the data set with ARPE-19 [5] (setting [14]) was “not effective” throughout. Also, the ROS activity result was “returned to the same level as the control” in the data set with LEC [4] (setting [15]); “the same ROS activity as the no H2O2 no vitamin C control” with LEC [4] (vitamin C 1000 μM for 24 hours with H2O2); 15-30% with LEC [4] (setting [16]); “returned to the same level as the control” with ARPE-19 [5] (setting [15]); “did not return to the normal control level” with ARPE-19 [5] (vitamin C 1000 μM for 24 hours); 15-30% in the data set with ARPE-19 [5] (setting [16]). In addition, the “vitamin C remaining” value in data set [6] (72 h) was found to be 10%; in data set [6] (5 days), 0%.
With `O=C1O[C@H]([C@@H](O)CO)C([O-])=C1O.[Na+]` [sodium ascorbate], the “concentration of 2 mM sodium ascorbate solution at time 0” value in data set [7] is 1400 µM.
